According to patent US20190388421A1, “NOVEL COMPOUNDS AND PHARMACEUTICAL COMPOSITIONS THEREOF FOR THE TREATMENT OF FIBROSIS” (Galapagos NV, priority 2016, published 2019):

What was measured:
[1] = system: HFL-1 cells; test: IL8 assay in the presence of Human Serum Albumin; assay type: cell-based; settings: HFL1, S1P (5 μM) induced IL-8, HFL-1 cells, with 2% HSA, read-out: HSA IL8 EC50
How it was run: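 Cells serum-starved with 1.95% HSA, pre-treated 1 h with compound (10-point 1/3 dilution from 30 μM, 0.3% DMSO), then stimulated with 5 μM S1P for 16 to 24 h at 37° C. Supernatant IL-8 measured by ELISA.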

[2] = system: HFL-1 cells; test: IL8 assay (S1P induced IL-8 production); assay type: cell-based; settings: Homo sapiens, HFL1; S1P (1 μM) induced IL-8, HFL-1 cells, without HSA
How it was run: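 Serum-starved human fetal lung fibroblasts were preincubated with compound for 1 h at 37° C (10-point, 1/3 dilution, top 30 μM, 0.3% DMSO). S1P at 1 μM final was then added for 16–24 h, and IL-8 in the supernatant was measured by ELISA.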

[3] = target: T1, human GPCR sphingosine 1-phosphate receptor 2 (S1PR2) (Homo sapiens, UniProt O95136); test: S1P2 antagonist assay (Ca2+ flux, S1P at EC80); assay type: cell-based; settings: CHO-S1PR2 cells, highest concentration 20 μM
T1 construct: host or cells: CHO
How it was run: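 CHO cells stably overexpressing human S1PR2, serum-starved 1 h and loaded with Fluo8 dye, were read for 3 min after compound addition, then stimulated with S1P at EC80 after 15 min at 37 °C. Top concentration 20 μM in a 10-point 1/3 series; Ca2+ fluorescence ratio normalized to vehicle and S1P EC80, giving EC50.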

[4] = target: T2, S1PR2 (Homo sapiens, UniProt O95136); test: GTP-γS binding assay ([35S]GTPγS, S1P at EC80, S1PR2 membranes); assay type: biochemical; settings: membranes from stable cell line over expressing S1PR2, read-out: S1PR2 EC
T2 construct: expressed in transfected cells
How it was run: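 Compounds tested against S1P at its EC80 on membranes (2.5 μg/well) from a stable S1PR2-overexpressing line, pre-incubated with 1 μM GDP 15 min at 4 °C. Buffer: 20 mM Tris pH 7.5, 10 mM MgCl2, 100 mM NaCl, 0.1% fatty-acid-free BSA, 50 ug/ml saponin. Incubated 4 h at room temperature; [35S]GTPγS binding read by WGA SPA beads.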

[5] = target: T3, human GPCR sphingosine 1-phosphate receptor 1 (S1PR1) (Homo sapiens, UniProt P21453); test: S1PR1 selectivity assay (Ca2+ flux, antagonist); assay type: cell-based; settings: S1P1 antagonist EC50, CHO cells overexpressing human S1PR1 and Gq protein
T3 construct: host or cells: CHO
How it was run: (§1)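 CHO cells stably overexpressing human S1PR1 or S1PR5 with Gq were preincubated with compound 15 min at 37 °C, then stimulated with S1P at EC80 (S1PR1) or an S1PR5-specific agonist (S1PR5). Ca2+ fluorescence was read for 3 min; 10-point 1/3 dilutions from 20 μM final, normalized to vehicle and EC80 trigger, gave EC50.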

[6] = target: T4, human GPCR sphingosine 1-phosphate receptor 5 (S1PR5) (Homo sapiens, UniProt Q9H228); test: S1PR5 selectivity assay (Ca2+ flux, antagonist, S1PR5 specific agonist trigger); assay type: cell-based; settings: S1P5 antagonist EC50, CHO cells overexpressing human S1PR5 and Gq protein
T4 construct: host or cells: CHO
How it was run: as §1

T1 sequence (O95136 whole entry): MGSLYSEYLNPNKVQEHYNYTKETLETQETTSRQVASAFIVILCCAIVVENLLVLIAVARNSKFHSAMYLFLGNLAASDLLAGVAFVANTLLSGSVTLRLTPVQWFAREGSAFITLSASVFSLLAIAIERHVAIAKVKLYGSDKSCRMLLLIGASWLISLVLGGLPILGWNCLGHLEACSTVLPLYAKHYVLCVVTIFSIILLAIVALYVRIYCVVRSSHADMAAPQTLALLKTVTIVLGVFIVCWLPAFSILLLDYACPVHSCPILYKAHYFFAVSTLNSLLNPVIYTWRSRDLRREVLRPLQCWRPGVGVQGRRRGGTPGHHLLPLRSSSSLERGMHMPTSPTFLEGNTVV
T2 sequence (O95136 whole entry): as above
T3 sequence (P21453 whole entry): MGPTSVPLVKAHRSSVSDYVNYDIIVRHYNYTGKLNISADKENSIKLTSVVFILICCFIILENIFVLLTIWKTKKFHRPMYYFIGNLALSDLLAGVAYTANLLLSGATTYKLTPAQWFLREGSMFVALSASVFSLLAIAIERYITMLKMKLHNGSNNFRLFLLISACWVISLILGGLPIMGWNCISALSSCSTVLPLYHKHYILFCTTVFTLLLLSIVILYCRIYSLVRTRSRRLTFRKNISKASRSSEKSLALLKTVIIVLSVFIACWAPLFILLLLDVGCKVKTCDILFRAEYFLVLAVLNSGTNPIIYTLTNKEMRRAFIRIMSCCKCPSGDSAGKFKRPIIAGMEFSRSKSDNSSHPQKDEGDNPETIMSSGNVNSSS
T4 sequence (Q9H228 whole entry): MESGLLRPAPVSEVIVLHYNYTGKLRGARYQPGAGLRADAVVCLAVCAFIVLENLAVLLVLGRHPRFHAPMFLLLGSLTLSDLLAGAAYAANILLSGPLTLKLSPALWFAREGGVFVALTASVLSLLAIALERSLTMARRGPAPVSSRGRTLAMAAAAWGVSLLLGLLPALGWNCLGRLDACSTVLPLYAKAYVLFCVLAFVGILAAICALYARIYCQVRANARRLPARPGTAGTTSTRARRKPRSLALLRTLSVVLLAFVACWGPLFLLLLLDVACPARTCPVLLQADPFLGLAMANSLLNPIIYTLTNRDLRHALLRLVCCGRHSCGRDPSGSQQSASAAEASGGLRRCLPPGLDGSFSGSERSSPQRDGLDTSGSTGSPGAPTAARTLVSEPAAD

| IC50 [1] | EC50 [2] | EC50 [3] | EC50 [4] | EC50 [5] | EC50 [6] | Compound |
| --- | --- | --- | --- | --- | --- | --- |
| 10000 nM | 432 nM | 188 nM | 469 nM | ≥ 19800 nM | ≥ 19800 nM | Cc1cc(CNC(=O)Nc2cc(Cl)nc(OCC(F)F)c2)nnc1N1CC(S(C)(=O)=O)C1 [Compound 92, 1-[2-chloro-6-(2,2-difluoroethoxy)-4-pyridyl]-3-[[5-methyl-6-(3-methylsulfonyl-azetidin-1-yl)pyridazin-3-yl]methyl]urea] |
| 2270 nM | 44 nM | 33 nM | 302 nM | 6610 nM | 627 nM | CCOc1cc(NC(=O)NCc2cc(C)c(N3CCCc4nn(C)cc43)nn2)cc(C(F)(F)F)n1 [Compound 96, 1-[2-ethoxy-6-(trifluoromethyl)-4-pyridyl]-3-[[5-methyl-6-(2-methyl-6,7-dihydro-5H-pyrazolo[4,3-b]pyridin-4-yl)pyridazin-3-yl]methyl]urea] |
